What was measured:
M1 muscarinic receptor = biological target: T1, M1 muscarinic receptor (Homo sapiens, UniProt P11229); assay: Functional mobilization of intracellular calcium (FLIPR, Fluo-3), M1-CHO cells; assay type: cell-based; conditions: compound nos. 1-454; for Emax: 100% efficacy is the maximum response obtained with the Carbachol control, read-out: M1 Efficacy; for M1 Activity: M1-CHO cells, calcium mobilization
T1 construct: expressed in transfected cells; host or cells: CHO cells (M1-CHO, under zeocin and G418 selection)
T1 sequence (P11229 1-460): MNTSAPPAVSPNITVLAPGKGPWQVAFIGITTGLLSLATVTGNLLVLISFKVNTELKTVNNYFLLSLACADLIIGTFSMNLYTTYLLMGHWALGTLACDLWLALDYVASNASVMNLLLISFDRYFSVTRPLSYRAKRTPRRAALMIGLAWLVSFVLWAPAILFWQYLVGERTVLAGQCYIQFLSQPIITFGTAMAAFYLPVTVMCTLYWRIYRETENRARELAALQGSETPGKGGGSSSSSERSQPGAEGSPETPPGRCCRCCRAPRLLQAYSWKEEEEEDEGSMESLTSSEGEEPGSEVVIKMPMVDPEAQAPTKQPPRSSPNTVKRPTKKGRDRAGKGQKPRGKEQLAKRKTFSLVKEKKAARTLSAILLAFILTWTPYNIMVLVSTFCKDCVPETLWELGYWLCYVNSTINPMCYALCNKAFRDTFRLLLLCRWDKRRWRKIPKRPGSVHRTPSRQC
Method in brief: (§1)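 Fluo-3 read-out, ex 488/em 540 nm, 60 sec on FLIPR 3. For agonist mode, compound added directly; for inhibition, 15 min compound pre-incubation before carbachol at EC80 (added as a 3× solution), or co-application. Buffer pH 7.4 with 1 mM probenecid; DMSO 0.5%.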

M4 muscarinic receptor = biological target: T2, M4 muscarinic receptor (Homo sapiens, UniProt P08173); assay: Functional mobilization of intracellular calcium (FLIPR, Fluo-3), M4-CHO cells; assay type: cell-based; conditions: compound nos. 1-454; for Emax: 100% efficacy is the maximum response obtained with the Carbachol control, read-out: M4 Efficacy; for M4 Activity: M4-CHO cells, calcium mobilization
T2 construct: expressed in transfected cells; host or cells: CHO cells (M4-CHO, under puromycin, zeocin and blasticidin selection)
T2 sequence (P08173 1-479): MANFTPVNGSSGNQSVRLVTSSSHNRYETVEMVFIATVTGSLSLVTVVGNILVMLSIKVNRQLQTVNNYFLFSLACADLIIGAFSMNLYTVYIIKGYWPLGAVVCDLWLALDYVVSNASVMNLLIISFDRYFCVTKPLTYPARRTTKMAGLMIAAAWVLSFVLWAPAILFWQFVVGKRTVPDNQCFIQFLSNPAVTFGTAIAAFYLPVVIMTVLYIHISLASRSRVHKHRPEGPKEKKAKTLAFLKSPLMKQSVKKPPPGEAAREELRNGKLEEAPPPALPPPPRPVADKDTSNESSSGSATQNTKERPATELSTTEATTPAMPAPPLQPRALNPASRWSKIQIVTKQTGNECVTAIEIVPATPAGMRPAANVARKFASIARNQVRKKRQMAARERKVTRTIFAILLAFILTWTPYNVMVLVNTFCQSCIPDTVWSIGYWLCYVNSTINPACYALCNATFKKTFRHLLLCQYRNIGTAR
Method in brief: as §1

| Compound | Emax (M1 muscarinic receptor) [%] | M1 Activity (M1 muscarinic receptor) | Emax (M4 muscarinic receptor) [%] | M4 Activity (M4 muscarinic receptor) |
| --- | --- | --- | --- | --- |
| CCOC(=O)N1C2CCC1CC(N1CCC3(CC1)c1ccccc1C(=O)C3(C)C)C2 (stereo not shown) [compound 278] | 65 to 85 | ++ (activity was measured to be between 0.7 μM and 3.0 μM) | 55 to 70 | ++ (activity was measured to be between 0.1 μM and 4.0 μM) |
| CC(=O)N1CC2(CCN(C3CCN(C(=O)O[C@@H]4CCOC4)CC3)CC2)c2cc(C)ccc21 [compound 279] | < 65 | ++ (activity was measured to be between 0.7 μM and 3.0 μM) | < 55 | ++ (activity was measured to be between 0.1 μM and 4.0 μM) |
| CC(=O)N[C@H]1CC2(CCN(C3CCC(C)CC3)CC2)c2ccccc21 (stereo partly shown) [compound 280] | 65 to 85 | + (activity was measured to be greater than or equal to 3.0 μM) | 55 to 70 | + (activity was measured to be greater than or equal to 4.0 μM) |
| CCOC(=O)N1CCC(N2CCC3(CC2)CN(C(=O)C2CCCCC2)c2ccc(F)cc23)CC1 [compound 281] | < 65 | ++ (activity was measured to be between 0.7 μM and 3.0 μM) | 55 to 70 | ++ (activity was measured to be between 0.1 μM and 4.0 μM) |
| CCOC(=O)N1CCC(N2CCC3(CC2)CN(C(=O)C(C)(C)C)c2ccc(F)cc23)CC1 [compound 282] | < 65 | +++ (activity was measured to be less than or equal to 0.7 μM) | 55 to 70 | ++ (activity was measured to be between 0.1 μM and 4.0 μM) |
| CCCOC(=O)N1C2CCC1CC(N1CCC3(CC1)COc1ccc(F)cc13)C2 (stereo not shown) [compound 283] | 65 to 85 | ++ (activity was measured to be between 0.7 μM and 3.0 μM) | 55 to 70 | + (activity was measured to be greater than or equal to 4.0 μM) |
| COCCOC(=O)N1CCC(N2CCC3(CC2)CN(C(C)=O)c2ccc(F)cc23)CC1 [compound 284] | < 65 | ++ (activity was measured to be between 0.7 μM and 3.0 μM) | < 55 | ++ (activity was measured to be between 0.1 μM and 4.0 μM) |
| CC(C)OC(=O)N1C2CCC1CC(N1CCC3(CCc4ccccc43)CC1)C2 (stereo not shown) [compound 285] | < 65 | ++ (activity was measured to be between 0.7 μM and 3.0 μM) | < 55 | + (activity was measured to be greater than or equal to 4.0 μM) |
| CCCCOC(=O)N1C2CCC1CC(N1CCC3(CC1)COc1ccc(F)cc13)C2 (stereo not shown) [compound 286] | < 65 | ++ (activity was measured to be between 0.7 μM and 3.0 μM) | < 55 | + (activity was measured to be greater than or equal to 4.0 μM) |
| COC(=O)N1CC2(CCN(C3CC4CCC(C3)N4C(=O)OCC(C)C)CC2)c2cc(F)ccc21 (stereo not shown) [compound 287] | < 65 | ++ (activity was measured to be between 0.7 μM and 3.0 μM) | < 55 | + (activity was measured to be greater than or equal to 4.0 μM) |
| Clc1ccc2c(c1)C1(CCO2)CCN(CC2CCOCC2)CC1 [compound 288] | < 65 | + (activity was measured to be greater than or equal to 3.0 μM) | < 55 | + (activity was measured to be greater than or equal to 4.0 μM) |
| CC(C)NC(=O)N1C2CCC1CC(N1CCC3(CC1)COc1ccc(F)cc13)C2 (stereo not shown) [compound 289] | < 65 | +++ (activity was measured to be less than or equal to 0.7 μM) | < 55 | + (activity was measured to be greater than or equal to 4.0 μM) |
| CCOC(=O)N1CCC(N2CCC3(CC2)CN(C(=O)N2CCOCC2)c2ccc(F)cc23)CC1 [compound 290] | < 65 | +++ (activity was measured to be less than or equal to 0.7 μM) | < 55 | + (activity was measured to be greater than or equal to 4.0 μM) |

From patent US7858635B2 (priority 2005, dated 2010)
